Laboratory results published in ChEMBL document CHEMBL3885881, “DrugMatrix”.

Species on record: Rattus norvegicus
Test: DrugMatrix - Regimen: Daily Repeat
Assay type: toxicity, organism-based, Sprague-Dawley
Design: regimen Daily Repeat, gender Male, age 6-8 weeks
Conditions: in vivo, po, route oral GAVAGE, […]; for ABSOLUTE BASOPHIL / ABSOLUTE EOSINOPHIL / ABSOLUTE LYMPHOCYTE / ABSOLUTE MONOCYTE / ABSOLUTE SEGMENTED NEUTROPHIL / BASOPHIL / EOSINOPHIL / ERYTHROCYTE COUNT / HEMATOCRIT / HEMOGLOBIN / LEUKOCYTE COUNT / LYMPHOCYTE / MEAN CORPUSCULAR HEMOGLOBIN / MEAN CORPUSCULAR HEMOGLOBIN CONCENTRATION / MEAN CORPUSCULAR VOLUME / MONOCYTE / NEUTROPHIL / NUCLEATED RED BLOOD CELLS / PLATELET COUNT: tissue Blood; for ALANINE AMINOTRANSFERASE / ALBUMIN / ALKALINE PHOSPHATASE / ASPARTATE AMINOTRANSFERASE / BLOOD UREA NITROGEN / CARBON DIOXIDE / CHLORIDE / CHOLESTEROL / CREATINE PHOSPHOKINASE / CREATININE / GLUCOSE / LACTATE DEHYDROGENASE / LIPASE / PHOSPHORUS / POTASSIUM / SODIUM / TOTAL BILIRUBIN / TOTAL PROTEIN / URIC ACID: tissue Plasma
[1] = 3 mg/kg, 120 h, dose level Low, time 5 day
[2] = 300 mg/kg, 72 h, dose level High, time 3 day
[3] = 300 mg/kg, 120 h, dose level High, time 5 day

SMILES: CC#C[C@]1(O)CC[C@H]2[C@@H]3CCC4=CC(=O)CCC4=C3[C@@H](c3ccc(N(C)C)cc3)C[C@@]21C [MIFEPRISTONE]
- ABSOLUTE BASOPHIL [1]: 0 CELLS/uL
- ABSOLUTE EOSINOPHIL [1]: 0 CELLS/uL
- ABSOLUTE LYMPHOCYTE [1]: 7739.67 CELLS/uL
- ABSOLUTE MONOCYTE [1]: 116.67 CELLS/uL
- ABSOLUTE SEGMENTED NEUTROPHIL [1]: 1310.33 CELLS/uL
- BASOPHIL [1]: 0%
- EOSINOPHIL [1]: 0%
- ERYTHROCYTE COUNT [1]: 4.91 x10E6/uL
- HEMATOCRIT [1]: 31.8%
- HEMOGLOBIN [1]: 12.53 G/DL
- LEUKOCYTE COUNT [1]: 9.17 x10E3/uL
- LYMPHOCYTE [1]: 84.33%
- MEAN CORPUSCULAR HEMOGLOBIN [1]: 25.53 pg
- MEAN CORPUSCULAR HEMOGLOBIN CONCENTRATION [1]: 39.43 G/DL
- MEAN CORPUSCULAR VOLUME [1]: 64.83 fL
- MONOCYTE [1]: 1.33%
- NEUTROPHIL [1]: 14.33%
- NUCLEATED RED BLOOD CELLS [1]: 0 /100WBC
- PLATELET COUNT [1]: 1194.67 x10E3/uL
- ALANINE AMINOTRANSFERASE [1]: 61.67 u/L
- ALBUMIN [1]: 4.13 G/DL
- ALKALINE PHOSPHATASE [1]: 340.33 u/L
- ASPARTATE AMINOTRANSFERASE [1]: 84 u/L
- BLOOD UREA NITROGEN [1]: 13.33 mg/dL
- CARBON DIOXIDE [1]: 30.33 mmol/L
- CHLORIDE [1]: 97.67 MEQ/L
- CHOLESTEROL [1]: 64.67 mg/dL
- CREATINE PHOSPHOKINASE [1]: 193.33 u/L
- CREATININE [1]: 0.14 mg/dL
- GLUCOSE [1]: 154.33 mg/dL
- LACTATE DEHYDROGENASE [1]: 87 u/L
- LIPASE [1]: 9.33 u/L
- PHOSPHORUS [1]: 10.8 mg/dL
- POTASSIUM [1]: 5.65 MEQ/L
- SODIUM [1]: 143.37 MEQ/L
- TOTAL BILIRUBIN [1]: 0.13 mg/dL
- TOTAL PROTEIN [1]: 5.9 G/DL
- URIC ACID [1]: 0.73 mg/dL
- ABSOLUTE BASOPHIL [2]: 0 CELLS/uL
- ABSOLUTE EOSINOPHIL [2]: 0 CELLS/uL
- ABSOLUTE LYMPHOCYTE [2]: 6590.67 CELLS/uL
- ABSOLUTE MONOCYTE [2]: 75.33 CELLS/uL
- ABSOLUTE SEGMENTED NEUTROPHIL [2]: 634 CELLS/uL
- BASOPHIL [2]: 0%
- EOSINOPHIL [2]: 0%
- ERYTHROCYTE COUNT [2]: 5.5 x10E6/uL
- HEMATOCRIT [2]: 33.8%
- HEMOGLOBIN [2]: 13.33 G/DL
- LEUKOCYTE COUNT [2]: 7.3 x10E3/uL
- LYMPHOCYTE [2]: 90.67%
- MEAN CORPUSCULAR HEMOGLOBIN [2]: 24.3 pg
- MEAN CORPUSCULAR HEMOGLOBIN CONCENTRATION [2]: 39.47 G/DL
- MEAN CORPUSCULAR VOLUME [2]: 61.57 fL
- MONOCYTE [2]: 1%
- NEUTROPHIL [2]: 8.33%
- NUCLEATED RED BLOOD CELLS [2]: 0 /100WBC
- PLATELET COUNT [2]: 1129.67 x10E3/uL
- ALANINE AMINOTRANSFERASE [2]: 63 u/L
- ALBUMIN [2]: 3.77 G/DL
- ALKALINE PHOSPHATASE [2]: 417.67 u/L
- ASPARTATE AMINOTRANSFERASE [2]: 107.67 u/L
- BLOOD UREA NITROGEN [2]: 14.33 mg/dL
- CARBON DIOXIDE [2]: 28 mmol/L
- CHLORIDE [2]: 102.67 MEQ/L
- CHOLESTEROL [2]: 54.33 mg/dL
- CREATINE PHOSPHOKINASE [2]: 371.67 u/L
- CREATININE [2]: 0.32 mg/dL
- GLUCOSE [2]: 160.67 mg/dL
- LACTATE DEHYDROGENASE [2]: 97.67 u/L
- LIPASE [2]: 11 u/L
- PHOSPHORUS [2]: 9.53 mg/dL
- POTASSIUM [2]: 4.8 MEQ/L
- SODIUM [2]: 144.33 MEQ/L
- TOTAL BILIRUBIN [2]: 0.17 mg/dL
- TOTAL PROTEIN [2]: 5.53 G/DL
- URIC ACID [2]: 0.37 mg/dL
- ABSOLUTE BASOPHIL [3]: 0 CELLS/uL
- ABSOLUTE EOSINOPHIL [3]: 48.67 CELLS/uL
- ABSOLUTE LYMPHOCYTE [3]: 8343 CELLS/uL
- ABSOLUTE MONOCYTE [3]: 151.67 CELLS/uL
- ABSOLUTE SEGMENTED NEUTROPHIL [3]: 790 CELLS/uL
- BASOPHIL [3]: 0%
- EOSINOPHIL [3]: 0.67%
- ERYTHROCYTE COUNT [3]: 5.36 x10E6/uL
- HEMATOCRIT [3]: 32.73%
- HEMOGLOBIN [3]: 12.93 G/DL
- LEUKOCYTE COUNT [3]: 9.33 x10E3/uL
- LYMPHOCYTE [3]: 89%
- MEAN CORPUSCULAR HEMOGLOBIN [3]: 24.17 pg
- MEAN CORPUSCULAR HEMOGLOBIN CONCENTRATION [3]: 39.53 G/DL
- MEAN CORPUSCULAR VOLUME [3]: 61.13 fL
- MONOCYTE [3]: 1.67%
- NEUTROPHIL [3]: 8.67%
- NUCLEATED RED BLOOD CELLS [3]: 0 /100WBC
- PLATELET COUNT [3]: 1290.33 x10E3/uL
- ALANINE AMINOTRANSFERASE [3]: 84.33 u/L
- ALBUMIN [3]: 3.8 G/DL
- ALKALINE PHOSPHATASE [3]: 386 u/L
- ASPARTATE AMINOTRANSFERASE [3]: 91 u/L
- BLOOD UREA NITROGEN [3]: 15.33 mg/dL
- CARBON DIOXIDE [3]: 30.33 mmol/L
- CHLORIDE [3]: 97.67 MEQ/L
- CHOLESTEROL [3]: 86 mg/dL
- CREATINE PHOSPHOKINASE [3]: 250 u/L
- CREATININE [3]: 0.3 mg/dL
- GLUCOSE [3]: 148.33 mg/dL
- LACTATE DEHYDROGENASE [3]: 74.67 u/L
- LIPASE [3]: 25.67 u/L
- PHOSPHORUS [3]: 8.03 mg/dL
- POTASSIUM [3]: 5.82 MEQ/L
- SODIUM [3]: 142.7 MEQ/L
- TOTAL BILIRUBIN [3]: 0.1 mg/dL
- TOTAL PROTEIN [3]: 6 G/DL
- URIC ACID [3]: 0.3 mg/dL
